Experimental data from US7253286B2, “Nitrogen-containing aromatic derivatives” (Eisai Co., Ltd, priority 2000, dated 2007).

Experiments:
VEGFR2 = molecular target: T1, VEGFR2 (Homo sapiens, UniProt P35968); test: Inhibition against VEGFR2 kinase (receptor tyrosine kinase activity, HTRF method); format: biochemical; conditions: His6-VEGFR2 cytoplasmic domain, biotin-poly(GT) substrate, ATP, 30° C. 10 minutes, read-out: IC50 (concentration required for 50% inhibition of VEGFR2 kinase activity)
T1 construct: coding for the cytoplasmic domain, beginning with lysine 791 and including the termination codon; made in house; host or cells: Sf9 insect cells (baculovirus, pFastBacHis)
T1 sequence (P35968 786-1356 limits assumed): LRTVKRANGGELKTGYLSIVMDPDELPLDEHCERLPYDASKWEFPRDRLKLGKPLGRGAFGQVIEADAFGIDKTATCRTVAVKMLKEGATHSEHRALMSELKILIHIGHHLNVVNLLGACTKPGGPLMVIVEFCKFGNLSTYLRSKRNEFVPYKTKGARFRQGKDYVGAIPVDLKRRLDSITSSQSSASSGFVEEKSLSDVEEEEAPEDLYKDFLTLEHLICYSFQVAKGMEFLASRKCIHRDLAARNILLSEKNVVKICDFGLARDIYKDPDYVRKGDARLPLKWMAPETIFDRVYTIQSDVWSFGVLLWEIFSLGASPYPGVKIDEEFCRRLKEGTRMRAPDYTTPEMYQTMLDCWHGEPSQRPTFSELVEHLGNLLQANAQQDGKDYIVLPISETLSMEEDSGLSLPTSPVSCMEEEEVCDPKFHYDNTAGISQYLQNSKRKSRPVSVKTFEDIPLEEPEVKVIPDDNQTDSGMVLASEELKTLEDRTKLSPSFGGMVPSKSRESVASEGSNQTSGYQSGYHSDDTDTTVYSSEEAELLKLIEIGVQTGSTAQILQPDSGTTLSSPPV
Excerpt: Measurement of Inhibition Against Receptor Tyrosine Kinase Activity
This assay is used to determine inhibition of a test substance on tyrosine kinase activity. DNA coding for the cytoplasmic domain of VEGFR2 is obtained by total cDNA synthesis (Edwards M, International Biotechnology Lab 5(3), 19–25, 1987) or by cloning. Expression in an appropriate expression system can produce a polypeptide with tyrosine kinase activity. […] For VEGFR2 (Genbank Accession No. L04947), the 1.7 kb DNA fragment described by Terman et al. (Oncogene, 6(9), 1677–1683, 1991), coding for the cytoplasmic domain, beginning with lysine 791 and including the termination codon, was isolated from a human placental cDNA library (purchased from Clontech Laboratories, Inc.) and cloned in a Baculovirus expression vector (pFastBacHis, purchased from GIBCO BRL) The recombinant construct was transfected into insect cells (Spondoptea frugiperda9 (Sf9)) to prepare a recombinant Baculovirus. (Instructions for preparation and use of recombinant Baculovirus maybe found in standard texts, such as “Bac-To-Bac Baculovirus Expression System” (GIBCO BRL).) The cytoplasmic fragment starting from lysine 398 (FGFR1, Genbank Accession No. X52833), the cytoplasmic fragment starting from lysine 558 (PDGFRβ, Genbank Accession No. M21616) or the cytoplasmic fragment starting from lysine 974 (HGFR, Genbank Accession No. J02958) may be cloned and expressed by the same method for use in assays for other tyrosine kinases. EGFR was purchased from Sigma Co. (Product No. E-2645).
For expression of the VEGFR2 tyrosine kinase, Sf9 cells were infected with the VEGFR2 recombinant virus and collected after 48 hours. The collected cells were rinsed with ice-cooled phosphate buffered saline (PBS) and then resuspended using 20 ml of ice-cooled Lysis Buffer (50 mM Tris-HCl (pH 8.5), 5 mM 2-mercaptoethanol, 100 mM KCl, 1 mM phenylmethylsulfonyl fluoride, 1% (v/v) NP-40) per 1.5×10^8 cells. The suspension was centrifuged at 12,000 rpm for 30 minutes at 4° C. and the supernatant was obtained.
The supernatant was added to a Ni—NTA agarose column (3 ml, purchased from Qiagen) equilibrated with Buffer A {20 mM Tris-HCl (pH 8.5), 5 mM 2-mercaptoethanol, 500 mM KCl, 20 mM imidazole, 10% (v/v) glycerol}. The column was washed with 30 ml of Buffer A, and then with 6 ml of Buffer B {20 mM Tris-HCl (pH 8.5), 5 mM 2-mercaptoethanol, 1M KCl, 10% (v/v) glycerol}, and finally with 6 ml of Buffer A. After washing, it was eluted with 6 ml of Buffer C {20 mM Tris-HCl (pH8.5), 5mM2-mercaptoethanol, 100 mMKCl, 100 mM imidazole, 10% (v/v) glycerol}. The eluate was placed on a dialysis membrane (purchased from Spectrum Laboratories) and dialyzed with a dialysis buffer {20 mM Tris-HCl (pH 7.5), 10% (v/v) glycerol, 1 mM dithiothreitol, 0.1 mM Na3VO4, 0.1 mM EGTA}. After dialysis, it was supplied for SDS-electrophoresis, and the recombinant protein (His6-VEGFR2, cytoplasmic domain of VEGFR2 fused with 6 histidine residues at the N-terminus) detected at a molecular weight of approximately 100 kDa with Coumassie Brilliant Blue staining was assayed using BSA (bovine serum albumin, purchased from Sigma Co.) as the standard substance, and stored at −80° C. until use. Using the same method for the cytoplasmic domains of FGFR1, PDGFRβ and HGFR yielded respective recombinant proteins fused with 6 histidine residues at the N-termini (His6-FGFR1, His6-PDGFRβ or His6-HGFR).
The tyrosine kinase reaction was conducted as follows. […]

[1] = test system: Human Umbilical Vein Endothelial Cells (HUVECs); test: Inhibition against sandwich tube formation by vascular endothelial cells in response to stimulation by VEGF; format: cell-based; conditions: HUVEC in collagen gel sandwich, stimulation by VEGF (25 ng/ml VEGF and 10 ng/ml EGF), 4th day, total tube length, read-out: IC50 (concentration required for 50% inhibition of tube formation)
In short: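 HUVECs were sandwiched between collagen gel layers in serum-free medium with 25 ng/ml VEGF plus 10 ng/ml EGF, with test substance added above the gel at 37 °C. On day 4 tubes were MTT-stained and total tube length measured by image analysis. IC50 is the concentration halving tube length relative to no-compound wells.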

Row | Compound | IC50 (VEGFR2) [nM] | IC50 [1] [nM]
1 | COCCOc1cc2nccc(Sc3ccc(NC(=O)Nc4ccc(F)cc4)s3)c2cc1C#N [Example 253, 1-{5-[6-Cyano-7-(2-methoxyethoxy)-quinolin-4-ylsulfanyl]thiophen-2-yl}-3-(4-fluorophenyl)urea] | 23 | 40
2 | COCCOc1cc2nccc(Oc3ccc(NC(=O)NC4CC4)cc3)c2cc1C(N)=O [Example 116, 4-(4-((Cyclopropylamino)carbonyl)aminophenoxy)-7-(2-methoxyethoxy)-6-quinolinecarboxamide] | 4.2 | 8.1
3 | COc1cc2nccc(Oc3ccc(NC(=O)Nc4ccc(F)cc4)cc3)c2cc1NS(C)(=O)=O [Example 266, N-(4-{4-[3-(4-Fluorophenyl)ureido]phenoxy}-7-methoxyquinolin-6-yl)methanesulfoneamide] | 5.4 | 0.6
4 | COc1cc2nccc(Oc3ccc(NC(=O)Nc4ccc(F)cc4)cc3)c2cc1NC(C)=O [Example 265, N-(4-{4-[3-(4-Fluorophenyl)ureido]phenoxy}-7-methoxyquinolin-6-yl)acetamide] | 6.2 | 0.6
5 | NC(=O)c1cc2c(Oc3ccc(NC(=O)NC4CC4)c(Cl)c3)ccnc2cc1OCCCN1CCOCC1 [Example 382, 4-(3-Chloro-4-(cyclopropylaminocarbonyl)aminophenoxy)-7-(3-(4-morpholino)propoxy)-6-quinolinecarboxamide] | 9 | 4.6
6 | O=C(Nc1ccc(Oc2ncnc3[nH]c(-c4ccccn4)cc23)cc1F)NC1CC1 [Example 283, 1-Cyclopropyl-3-[2-fluoro-4-(6-(pyridin-2-yl)-7H-pyrrolo[2,3-d]pyrimidin-4-yloxy)phenyl]urea] | 26 | 36
7 | COc1cc2nccc(Oc3ccc(NC(=O)NC4CC4)cc3)c2cc1C(N)=O [Example 121, 4-(4-((Cyclopropylamino)carbonyl)aminophenoxy)-7-methoxy-6-quinolinecarboxamide] | 8.7 | 42
8 | CC(=O)Nc1cc(Oc2ccc(NC(=O)Nc3cccc(S(C)(=O)=O)c3)cc2)ncn1 [Example 556, N-(6-(4-(3-(3-Methylsulfonylphenyl)ureido)phenoxy)pyrimidin-4-yl)acetamide] | 14 | 
9 | COCCOc1cc2nccc(Oc3ccc(NC(=O)Nc4cccc(S(C)(=O)=O)c4)cc3)c2cc1C#N [Example 21, N-(4-(6-Cyano-7-(2-methoxyethoxy)-4-quinolyl)oxyphenyl)-N′-(3-(methylsulfonyl)phenyl)urea] | 4.3 | 
10 | COCCNC(=O)c1cc2c(Oc3ccc(NC(=O)NC4CC4)c(Cl)c3)ccnc2cc1OC [Example 398, N6-(2-Methoxyethyl)-4-(3-chloro-4-(((cyclopropylamino)carbonyl)amino)phenoxy)-7-methoxy-6-quinolinecarboxamide] | 3.5 | 
11 | N#Cc1cc2c(Oc3ccc(NC(=O)Nc4ccc(F)cc4F)c(F)c3)ccnc2cc1OCCN1CCOCC1 [Example 54, N-(4-(6-Cyano-7-(2-(4-morpholino)ethoxy)-4-quinolyl)oxy-2-fluorophenyl)-N′-(2,4-difluorophenyl)urea] | 15 | 
12 | COc1cc2nccc(Oc3ccc(NC(=O)NC4CC4)c(Cl)c3)c2cc1C(=O)NCCO [Example 410, N6-(2-Hydroxyethyl)-4-(3-chloro-4-(((cyclopropylamino)carbonyl)amino)phenoxy)-7-methoxy-6-quinolinecarboxamide] | 2.2 | 
13 | COc1cc2nccc(Oc3ccc(NC(=O)NC4CC4)c(Cl)c3)c2cc1C(=O)NCC#N [Example 441, N6-Cyanomethyl-4-(3-chloro-4-(((cyclopropylamino)carbonyl)amino)phenoxy)-7-methoxy-6-quinolinecarboxamide] | 2.8 | 3.6
14 | COCCOc1cc2nccc(Oc3ccc(NC(=O)Nc4ccccc4)cc3)c2cc1C#N [Example 65, N-(4-(6-cyano-7-(methoxyethoxy)-4-quinolyl)oxyphenyl)-N′-phenylurea] | 15 | 5.9
15 | O=C(Nc1ccc(Oc2ncnc3[nH]c(-c4ccc(OC[C@H](O)CN5CCCC5)cc4)cc23)cc1Cl)NC1CC1 [Example 159, 1-(2-Chloro-4-{6-[4-((2R)-2-hydroxy-3-pyrrolidinopropoxy)phenyl]-7H-pyrrolo[2,3-d]pyrimidin-4-yloxy]phenyl}-3-cyclopropylurea] | 25 | 0.6
16 | CCCC(=O)Nc1cc(Oc2ccc(NC(=O)Nc3ccc(F)cc3)cc2)ccn1 [Example 463, N-[4-(2-Butanoylaminopyridin-4-yl)oxyphenyl]-N′-(4-fluorophenyl)urea] | 5.9 | 26
17 | COCCOc1cc2nccc(Oc3ccc(NC(=O)Nc4cccc(SC)c4)c(F)c3)c2cc1C#N [Example 33, N-(4-(6-Cyano-7-(2-methoxyethoxy)-4-quinolyl)oxy-2-fluorophenyl)-N′-(3-(methylsulfanyl)phenyl)urea] | 6.9 | 
18 | CONC(=O)c1cc2c(Oc3ccc(NC(=O)Nc4nccs4)cc3)ccnc2cc1OC [Example 346, N6-Methoxy-7-methoxy-4-(4-(((1,3-thiazol-2-ylamino)carbonyl)amino)phenoxy)-6-quinolinecarboxamide] | 4.6 | 25
19 | COc1cc2nccc(Oc3ccc4c(ccn4C(=O)NCCF)c3)c2cc1C(N)=O [Example 314, 6-Carbamoyl-4-[1-(2-fluoroethylcarbamoyl)1H-indol-5-yloxy]-7-methoxyquinoline] | 5.3 | 4.2
20 | COCCOc1cc2nccc(Oc3ccc(NC(=O)NC4CC4)c(Cl)c3)c2cc1C(N)=O [Example 381, 4-(3-Chloro-4-(cyclopropylaminocarbonyl)aminophenoxy)-7-(2-methoxyethoxy)-6-quinolinecarboxamide] | 2.6 | 4.7
21 | COCCOc1cc2nccc(Oc3ccc(NC(=O)Nc4cccc(S(C)(=O)=O)c4)c(F)c3)c2cc1C#N [Example 34, N-(4-(6-Cyano-7-(2-methoxyethoxy)-4-quinolyl)oxy-2-fluorophenyl)-N′-(3-(methylsulfonyl)phenyl)urea] | 3.4 | 
22 | COCCOc1cc2nccc(Oc3ccc(NC(=O)NC4CC4)c(Cl)c3)c2cc1C#N [Example 262] | 9.5 | 
23 | COCCOc1cc2nccc(Sc3ccc(NC(=O)Nc4nccs4)s3)c2cc1C#N [Example 252, 1-{5-[6-Cyano-7-(2-methoxyethoxy)-quinolin-4-ylsulfanyl]-thiophen-2-yl}-3-(thiazol-2-yl)urea] | 31 | 
24 | COc1ccc(NC(=O)Nc2ccc(Oc3ccnc4cc(OCCCc5ccncc5)c(C#N)cc34)cc2)cc1 [Example 1] | 51 | 310
